From patent EP2196465A1, “(3-oxo)pyridazin-4-ylurea derivatives as PDE4 inhibitors” (Almirall, S.A., priority 2008, dated 2010)

Target: recombinant PDE4 enzyme
Assay: PDE4 [3H] cAMP Scintillation Proximity Assay (SPA)
Assay type: biochemical
Settings: inhibition of PDE4; 30 nM [3H] cAMP, 1 hr at room temperature, yeast extract of recombinant PDE4 enzyme
Method: Measurement of Phosphodiesterase Activity was done using a [3H] cAMP Scintillation Proximity Assay (SPA) (GE Healthcare). Compounds to be tested were disolved in DMSO at a stock concentration of 1mM and serial dilutions were prepared in 50% DMSO to determine IC50s.
The reactions were conducted in 96-well plates (Corning, Ref.3604) at room temperature, in 0.1 ml of reaction buffer containing (final concentrations): 50 mM Tris-HCl, pH 7.5, 8.3 mM MgCl2, 1.7 mM EGTA, 30 nM [3H] cAMP (approximately 150000 dpm/well) with or without the inhibitors. The reaction was initiated by adding yeast extract of recombinant PDE4 enzyme.
Plates were shaken for 1 hr at room temperature and the incubation was terminated by adding 50 µl (0.5 mg /well) of SPA yttrium silicate beads (RPNQ 0150; GE Healthcare) in the presence of zinc sulfate. Plates were stored overnight in the dark and read on a TRILUX microtiter plate reader (Perkin Elmer).

Row | IC50 [nM] | SMILES
1 | 0.391 | CCn1nc(-c2cccc(-c3cccc(C(=O)NCc4ccc(O)cc4)c3)c2)cc(NC(=O)Nc2c(Cl)cncc2Cl)c1=O [Example 138, 3'-[5-({[(3,5-dichloropyridin-4-yl)amino]carbonyl}amino)-1-ethyl-6-oxo-1,6-dihydropyridazin-3-yl]-N-(4-hydroxybenzyl)biphenyl-3-carboxamide]
2 | 0.056 | CCn1nc(-c2cccc(-c3ccc(CC(=O)NCCCCCCCN(C)CCO)cc3)c2)cc(NC(=O)Nc2c(Cl)cncc2Cl)c1=O [Example 122, 2-(3'-(5-(3-(3,5-dichloropyridin-4-yl)ureido)-1-ethyl-6-oxo-1,6-dihydropyridazin-3-yl)biphenyl-4-yl)-N-(7-((2-hydroxyethyl)(methyl)amino)heptyl)acetamide]
3 | 0.237 | CCn1nc(-c2cccc(-c3cc(F)ccc3O)c2)cc(NC(=O)Nc2c(Cl)cncc2Cl)c1=O [Example 4, N-(3,5-Dichloropyridin-4-yl)-N'-[2-ethyl-6-(5'-fluoro-2'-hydroxybiphenyl-3-yl)-3-oxo-2,3-dihydropyridazin-4-yl]urea]
4 | 0.031 | CCn1nc(-c2cccc(-c3cccc(C(=O)NCCCCCCCN(C)CCO)c3)c2)cc(NC(=O)Nc2c(Cl)cncc2Cl)c1=O [Example 120, 3'-(5-(3-(3,5-dichloropyridin-4-yl)ureido)-1-ethyl-6-oxo-1,6-dihydropyridazin-3-yl)-N-(7-((2-hydroxyethyl)(methyl)amino)heptyl)biphenyl-3-carboxamide]
5 | 0.104 | CCn1nc(-c2cccc(-c3cccc(C(=O)NCCN4CCCCC4)c3)c2)cc(NC(=O)Nc2c(Cl)cncc2Cl)c1=O [Example 51, 3'-[5-({[(3,5-Dichloropyridin-4-yl)amino]carbonyl}amino)-1-ethyl-6-oxo-1,6-dihydropyridazin-3-yl]-N-(2-piperidin-1-ylethyl)biphenyl-3-carboxamide]
6 | 0.133 | CCn1nc(-c2cccc(-c3cccc(C(=O)NCCCN(C)C)c3)c2)cc(NC(=O)Nc2c(Cl)cncc2Cl)c1=O [Example 22, 3'-[5-({[(3,5-Dichloropyridin-4-yl)amino]carbonyl}amino)-1-ethyl-6-oxo-1,6-dihydropyridazin-3-yl]-N-[3-(dimethylamino)propyl]biphenyl-3-carboxamide]
7 | 0.061 | CCn1nc(-c2cccc(-c3cccc(CC(=O)NCCN4CCOCC4)c3)c2)cc(NC(=O)Nc2c(Cl)cncc2Cl)c1=O [Example 119, 2-(3'-(5-(3-(3,5-dichloropyridin-4-yl)ureido)-1-ethyl-6-oxo-1,6-dihydropyridazin-3-yl)biphenyl-3-yl)-N-(2-morpholinoethyl)acetamide]
8 | 0.047 | CCn1nc(-c2cccc(-c3cccc(C(=O)NCCN(C)C)c3)c2)cc(NC(=O)Nc2c(Cl)cncc2Cl)c1=O [Example 17, 3'-[5-({[(3,5-Dichloropyridin-4-yl)amino]carbonyl}amino)-1-ethyl-6-oxo-1,6-dihydropyridazin-3-yl]-N-[2-(dimethylamino)ethyl]biphenyl-3-carboxamide]
9 | 0.098 | CCn1nc(-c2cccc(-c3ccc(C(=O)O)cc3)c2)cc(NC(=O)Nc2c(Cl)cncc2Cl)c1=O [Example 26, 3'-[5-({[(3,5-Dichloropyridin-4-yl)amino]carbonyl}amino)-1-ethyl-6-oxo-1,6-dihydropyridazin-3-yl]biphenyl-4-carboxylic acid]
10 | 0.127 | CCn1nc(-c2cccc(-c3cccc(C(=O)NC4CC4)c3)c2)cc(NC(=O)Nc2c(Cl)cncc2Cl)c1=O [Example 21, N-Cyclopropyl-3'-[5-({[(3,5-dichloropyridin-4-yl)amino]carbonyl}amino)-1-ethyl-6-oxo-1,6-dihydropyridazin-3-yl]biphenyl-3-carboxamide]
11 | 0.076 | CCn1nc(-c2cccc(-c3cc(O)cc(C(=O)NC4CC4)c3)c2)cc(NC(=O)Nc2c(Cl)cncc2Cl)c1=O [Example 126, N-cyclopropyl-3'-[5-({[(3,5-dichloropyridin-4-yl)amino]carbonyl}amino)-1-ethyl-6-oxo-1,6-dihydropyridazin-3-yl]-5-hydroxybiphenyl-3-carboxamide]
12 | 0.173 | CCn1nc(-c2cccc(-c3cccc(CC(=O)NC4CC4)c3)c2)cc(NC(=O)Nc2c(Cl)cncc2Cl)c1=O [Example 127, N-cyclopropyl-2-{3'-[5-({[(3,5-dichloropyridin-4-yl)amino]carbonyl}amino)-1-ethyl-6-oxo-1,6-dihydropyridazin-3-yl]biphenyl-3-yl}acetamide]
13 | 0.1 | CCn1nc(-c2cccc(-c3cccc(CC(=O)NCCN4CCCCC4)c3)c2)cc(NC(=O)Nc2c(Cl)cncc2Cl)c1=O [Example 118, 2-(3'-(5-(3-(3,5-dichloropyridin-4-yl)ureido)-1-ethyl-6-oxo-1,6-dihydropyridazin-3-yl)biphenyl-3-yl)-N-(2-(piperidin-1-yl)ethyl)acetamide]
14 | 0.037 | CCn1nc(-c2cccc(-c3cc(O)cc(C(=O)NCCCCCCCN(C)CCO)c3)c2)cc(NC(=O)Nc2c(Cl)cncc2Cl)c1=O [Example 124, 3'-(5-(3-(3,5-dichloropyridin-4-yl)ureido)-1-ethyl-6-oxo-1,6-dihydropyridazin-3-yl)-5-hydroxy-N-(7-((2-hydroxyethyl)(methyl)amino)heptyl)biphenyl-3-carboxamide]
15 | 0.049 | CCn1nc(-c2cccc(-c3ccc(CC(=O)NCCN4CCCCC4)cc3)c2)cc(NC(=O)Nc2c(Cl)cncc2Cl)c1=O [Example 117, 2-(3'-(5-(3-(3,5-dichloropyridin-4-yl)ureido)-1-ethyl-6-oxo-1,6-dihydropyridazin-3-yl)biphenyl-4-yl)-N-(2-(piperidin-1-yl)ethyl)acetamide]
